# Source: US8637550B2, “Heteroaryl diamide compounds useful as MMP-13 inhibitors” (Boehringer Ingelheim International GmbH, priority 2008, dated 2014)
# Target: MMP-13 (Homo sapiens, UniProt P45452)
# Test: EnzoLyte 520 Generic MMP Assay Kit, 5-FAM/QXL520 FRET peptide substrate
# Format: biochemical
# Source text: The EnzoLyte™ 520 Generic MMP Assay Kit (AnaSpec Inc.) can detect the activity of several MMPs including MMP-1, 2, 3, 7, 8, 9, 13, and 14. This kit uses a 5-FAM/QXL™520 fluorescence resonance energy transfer (FRET) peptide as an MMP substrate.
row,IC50,Structure (SMILES)
1,47 nM,CCOc1ccc(-c2ccc(-c3ccc(C(=O)N[C@H](C(=O)NC)C(C)C)o3)nc2)cc1 [5-[5-(4-Ethoxy-phenyl)-pyridin-2-yl]-furan-2-carboxylic acid ((S)-2-methyl-1-methylcarbamoyl-propyl)-amide]
2,78 nM,CNC(=O)[C@@H](NC(=O)c1ccc(-c2ccc(-c3ccc(F)cc3)cn2)o1)C(C)C [5-[5-(4-Fluoro-phenyl)-pyridin-2-yl]-furan-2-carboxylic acid ((S)-2-methyl-1-methylcarbamoyl-propyl)-amide]
3,29 nM,CNC(=O)[C@@H](NC(=O)c1ccc(-c2ccc(-c3ccc(OC(C)C)cc3)cn2)o1)C(C)C [5-[5-(4-Isopropoxy-phenyl)-pyridin-2-yl]-furan-2-carboxylic acid ((S)-2-methyl-1-methylcarbamoyl-propyl)-amide]
4,180 nM,CNC(=O)[C@@H](NC(=O)c1ccc(-c2ccc(-c3ccc(C)cc3)cn2)o1)C(C)C [5-[5-(4-Methyl-phenyl)-pyridin-2-yl]-furan-2-carboxylic acid ((S)-2-methyl-1-methylcarbamoyl-propyl)-amide]
5,415 nM,CNC(=O)[C@@H](NC(=O)c1ccc(-c2ccc(OCc3[nH]cnc3C)cn2)o1)C1CCOCC1 [5-[5-(5-Methyl-3H-imidazol-4-ylmethoxy)-pyridin-2-yl]-furan-2-carboxylic acid [(S)-methylcarbamoyl-(tetrahydro-pyran-4-yl)-methyl]-amide]
6,17 nM,CCNC(=O)[C@@H](NC(=O)c1ccc(-c2ccc(OCc3ccccc3)cn2)o1)C1CCCCC1 [5-[5-(Benzyloxy)pyridin-2-yl]-N-[(1S)-1-cyclohexyl-2-(ethylamino)-2-oxoethyl]furan-2-carboxamide]
7,10 nM,CNC(=O)[C@@H](NC(=O)c1ccc(-c2ccc(OCc3ccccc3)cn2)o1)C1CCCCC1 [5-[5-(Benzyloxy)pyridin-2-yl]-N-[(1S)-1-cyclohexyl-2-(methylamino)-2-oxoethyl]furan-2-carboxamide]
8,3 nM,CNC(=O)[C@@H](NC(=O)c1ccc(-c2ccc(OCc3ccccc3)cn2)o1)C1CCOCC1 [5-[5-(Benzyloxy)pyridin-2-yl]-N-[(1S)-2-(methylamino)-2-oxo-1-(tetrahydro-2H-pyran-4-yl)ethyl]furan-2-carboxamide]
9,156 nM,"CNC(=O)[C@@H](NC(=O)c1ccc(-c2cccc(CNC(=O)c3ccc(C)c(C)c3)c2)o1)C(C)C [5-{3-[(3,4-Dimethyl-benzoylamino)-methyl]-phenyl}-furan-2-carboxylic acid ((S)-2-methyl-1-methylcarbamoyl-propyl)-amide]"
10,160 nM,CNC(=O)[C@@H](NC(=O)c1ccc(-c2cccc(CNC(=O)c3cccc(C#N)c3)c2)o1)C(C)C [5-{3-[(3-Cyano-benzoylamino)-methyl]-phenyl}-furan-2-carboxylic acid ((S)-2-methyl-1-methylcarbamoyl-propyl)-amide]
11,213 nM,CNC(=O)[C@@H](NC(=O)c1ccc(-c2cccc(CNC(=O)c3cccc(N(C)C)c3)c2)o1)C(C)C [5-{3-[(3-Dimethylamino-benzoylamino)-methyl]-phenyl}-furan-2-carboxylic acid ((S)-2-methyl-1-methylcarbamoyl-propyl)-amide]
12,160 nM,CNC(=O)[C@@H](NC(=O)c1ccc(-c2cccc(CNC(=O)c3cccc(C(C)C)c3)c2)o1)C(C)C [5-{3-[(3-Isopropyl-benzoylamino)-methyl]-phenyl}-furan-2-carboxylic acid ((S)-2-methyl-1-methylcarbamoyl-propyl)-amide]
13,163 nM,CNC(=O)[C@@H](NC(=O)c1ccc(-c2cccc(CNC(=O)c3cccc(OC)c3)c2)o1)C(C)C [5-{3-[(3-Methoxy-benzoylamino)-methyl]-phenyl}-furan-2-carboxylic acid ((S)-2-methyl-1-methylcarbamoyl-propyl)-amide]
14,132 nM,CNC(=O)[C@@H](NC(=O)c1ccc(-c2cccc(CNC(=O)c3cccc(C)c3)c2)o1)C(C)C [5-{3-[(3-Methyl-benzoylamino)-methyl]-phenyl}-furan-2-carboxylic acid ((S)-2-methyl-1-methylcarbamoyl-propyl)-amide]
15,215 nM,CNC(=O)[C@@H](NC(=O)c1ccc(-c2cccc(CNC(=O)c3ccc(F)c(C(F)(F)F)c3)c2)o1)C(C)C [5-{3-[(3-Trifluoromethyl-4-fluoro-benzoylamino)-methyl]-phenyl}-furan-2-carboxylic acid ((S)-2-methyl-1-methylcarbamoyl-propyl)-amide]
16,49 nM,CNC(=O)[C@@H](NC(=O)c1ccc(-c2cccc(CNC(=O)c3cccc(C(F)(F)F)c3)c2)o1)C(C)C [5-{3-[(3-Trifluoromethyl-benzoylamino)-methyl]-phenyl}-furan-2-carboxylic acid ((S)-2-methyl-1-methylcarbamoyl-propyl)-amide]
17,185 nM,CNC(=O)[C@@H](NC(=O)c1ccc(-c2cccc(CNC(=O)c3ccc(C#N)cc3)c2)o1)C(C)C [5-{3-[(4-Cyano-benzoylamino)-methyl]-phenyl}-furan-2-carboxylic acid ((S)-2-methyl-1-methylcarbamoyl-propyl)-amide]

row,IC50,Structure (SMILES)
1,110 nM,CNC(=O)[C@@H](NC(=O)c1ccc(-c2cccc(CNC(=O)c3ccc(N(C)C)cc3)c2)o1)C(C)C [5-{3-[(4-Dimethylamino-benzoylamino)-methyl]-phenyl}-furan-2-carboxylic acid ((S)-2-methyl-1-methylcarbamoyl-propyl)-amide]
2,225 nM,CNC(=O)[C@@H](NC(=O)c1ccc(-c2cccc(CNC(=O)c3ccc(C(C)C)cc3)c2)o1)C(C)C [5-{3-[(4-Isopropyl-benzoylamino)-methyl]-phenyl}-furan-2-carboxylic acid ((S)-2-methyl-1-methylcarbamoyl-propyl)-amide]
3,155 nM,CNC(=O)[C@@H](NC(=O)c1ccc(-c2cccc(CNC(=O)c3ccc(OC)cc3)c2)o1)C(C)C [5-{3-[(4-Methoxy-benzoylamino)-methyl]-phenyl}-furan-2-carboxylic acid ((S)-2-methyl-1-methylcarbamoyl-propyl)-amide]
4,175 nM,CNC(=O)[C@@H](NC(=O)c1ccc(-c2cccc(CNC(=O)c3ccc(C)cc3)c2)o1)C(C)C [5-{3-[(4-Methyl-benzoylamino)-methyl]-phenyl}-furan-2-carboxylic acid ((S)-2-methyl-1-methylcarbamoyl-propyl)-amide]
5,165 nM,CNC(=O)[C@@H](NC(=O)c1ccc(-c2cccc(CNC(=O)C3CCCCC3)c2)o1)C(C)C [5-{3-[(Cyclohexanecarbonyl-amino)-methyl]-phenyl}-furan-2-carboxylic acid ((S)-2-methyl-1-methylcarbamoyl-propyl)-amide]
6,27 nM,CNC(=O)[C@@H](NC(=O)c1ccc(-c2cccc(CNC(=O)c3cccc(Br)n3)c2)o1)C1CC1 [6-Bromo-N-[3-(5-{[(1S)-1-cyclopropyl-2-(methylamino)-2-oxoethyl]carbamoyl}-2-furyl)benzyl]pyridine-2-carboxamide]
7,2 nM,CNC(=O)[C@@H](NC(=O)c1ccc(-c2cccc(CNC(=O)c3cccc(Cl)n3)c2)o1)C(C)C [6-Chloro-N-[3-(5-{[(1S)-2-methyl-1-(methylcarbamoyl)propyl]carbamoyl}-2-furyl)benzyl]pyridine-2-carboxamide]
8,2 nM,CNC(=O)[C@@H](NC(=O)c1ccc(-c2cccc(CNC(=O)c3cccc(F)n3)c2)o1)C(C)C [6-Fluoro-N-[3-(5-{[(1S)-2-methyl-1-(methylcarbamoyl)propyl]carbamoyl}-2-furyl)benzyl]pyridine-2-carboxamide]
9,14 nM,CNC(=O)[C@@H](NC(=O)c1ccc(-c2ccc(NC(=O)c3cccc(C)n3)cc2)o1)C(C)C [6-Methyl-N-[4-(5-{[(2S)-3-methyl-1-(methylamino)-1-oxobutan-2-yl]carbamoyl}furan-2-yl)phenyl]pyridine-2-carboxamide]
10,24 nM,"CNC(=O)[C@@H](NC(=O)c1ccc(-c2ccc(NC(=O)c3cn4cc(C(N)=O)ccc4n3)cc2)o1)C1CCCCC1 [Imidazo[1,2-a]pyridine-2,6-dicarboxylic acid 6-amide 2-[(4-{5-[((S)-cyclohexyl-methylcarbamoyl-melhyl)-carbamoyl]-furan-2-yl}-phenyl)-amide]]"
11,225 nM,CNC(=O)[C@@H](NC(=O)c1ccc(-c2ccc(NC(=O)OC)cc2)o1)C1CCCCC1 [Methyl [4-(5-{[(1S)-1-cyclohexyl-2-(methylamino)-2-oxoethyl]carbamoyl}furan-2-yl)phenyl]carbamate]
12,4 nM,CNC(=O)[C@@H](NC(=O)c1ccc(-c2cccc(CNC(=O)c3cccc(C)n3)c2)o1)C1CCCCC1 [N-[3-(5-{[(1S)-1-cyclohcxyl-2-(methylamino)-2-oxoethyl]carbamoyl}furan-2-yl)benzyl]-6-methylpyridine-2-carboxamide]
13,72 nM,"CNC(=O)[C@@H](NC(=O)c1ccc(-c2cccc(CNC(=O)c3cc(C)n(C)n3)c2)o1)C1CCCCC1 [N-[3-(5-{[(1S)-1-cyclohexyl-2-(methylamino)-2-oxoethyl]carbamoyl}furan-2-yl)benzyl]-1,5-dimethyl-1H-pyrazole-3-carboxamide]"
14,11 nM,CNC(=O)[C@@H](NC(=O)c1ccc(-c2cccc(CNC(=O)c3cc4ccccc4o3)c2)o1)C1CCCCC1 [N-[3-(5-{[(1S)-1-cyclohexyl-2-(methylamino)-2-oxoethyl]carbamoyl}furan-2-yl)benzyl]-1-benzofuran-2-carboxamide]
15,313 nM,CNC(=O)[C@@H](NC(=O)c1ccc(-c2cccc(CNC(=O)c3nccn3C)c2)o1)C1CCCCC1 [N-[3-(5-{[(1S)-1-cyclohexyl-2-(methylamino)-2-oxoethyl]carbamoyl}furan-2-yl)benzyl]-1-methyl-1H-imidazole-2-carboxamide]
16,24 nM,CNC(=O)[C@@H](NC(=O)c1ccc(-c2cccc(CNC(=O)c3ccn(C)n3)c2)o1)C1CCCCC1 [N-[3-(5-{[(1S)-1-cyclohexyl-2-(methylamino)-2-oxoethyl]carbamoyl}furan-2-yl)benzyl]-1-methyl-1H-pyrazole-3-carboxamide]
